Assay results as given in patent US20070238661A1, “Substance P treatment for hepatitis C” (priority 2006, published 2007).

How the values were obtained:
[1] = test system: A/Hong Kong 8/68 influenza virus; parameters: species or system C57BL/6 mice; conditions: mouse, in vivo
lung protein alterations = test: Acute formalin exposure lung injury model, lung protein analysis by two-dimensional gel electrophoresis; format: in vivo, Fischer 344 rats
Protocol: In a third system, we sought to determine if Sar^9, Met (O2)^11-substance P-treated Fischer 344 rats who were exposed to 67 mg/m^3 […] aerosolize formalin for 1.5 minutes would attenuate lung protein alterations. At approximately 42 minutes post-formalin or air exposure, rat lungs were removed for protein analysis. […] Among these 71 proteins were fibrinogen-related proteins.

Hepatitis C virus = conditions: substance P aerosol combined with standard drug treatment of ribavirin and interferon alpha

Compound | development of influenza symptoms (decreased body mass, fever, dehydration, nasal discharge) [1] | leukotriene B4 levels relative to A/Hong Kong 8/68 virus only mice [1] [%] | lung cell counts after broncho-alveolar lavage [1] | signs of lung injury (electron micrographs) [1] | number of lung proteins whose formalin-mediated abundance changes were attenuated (lung protein alterations; 67 mg/m^3 aerosolized formalin for 1.5 minutes, lungs removed about 42 minutes post-exposure, includes fibrinogen-related proteins) [proteins] | lung fibrinogen concentrations after acute formalin exposure (proteomic analyses) (lung protein alterations; acute lung injury model) | deleterious effects of ribavirin and interferon alpha (loss of appetite, nausea, vomiting, weight loss) (Hepatitis C virus)
Sar^9, Met (O2)^11-substance P | did not develop influenza symptoms | 33 | normal lung cell counts | did not observe any signs of lung injury | 71 | preserve fibrinogen concentrations | 
CSCC[C@H](NC(=O)[C@H](CC(C)C)NC(=O)CNC(=O)[C@H](Cc1ccccc1)NC(=O)[C@H](Cc1ccccc1)NC(=O)[C@H](CCC(N)=O)NC(=O)[C@H](CCC(N)=O)NC(=O)[C@@H]1CCCN1C(=O)[C@H](CCCCN)NC(=O)[C@@H]1CCCN1C(=O)[C@@H](N)CCCN=C(N)N)C(N)=O [substance P] |  |  |  |  |  |  | eliminated
